Assays:
Assay type in all cases: cell-based
[1] = system: cells in which folA is regulated by PBAD, PLtetO-1, or Plac/ara-1; assay: MIC by microbroth dilution in E. coli under-expressing folA; details: for MIC with decreasing regulator level: PLtetO-1 or Plac/ara-1, regulators L-arabinose, anhydrotetracycline, IPTG, FIG. 3
Experimental: In another example, the wild-type native folA gene was knocked out, and a wild-type copy of the gene folA, which encodes the protein dihydrofolate reductase, was placed under ectopic expression in the yibD locus under regulation by PBAD with the regulator, L-arabinose. Dihydropteroate synthetase, the gene product of […], catalyzes the enzymatic reaction two steps before dihydrofolate reductase in the folate biosynthetic pathway.
(§1) Methods. […] IPTG was added to a final concentration of 0.1 mM and anhydrous-tetracycline was added to a final concentration of 100 ng/ml to the culture media for routine growth of GTC-EC#313 and GTC-EC#346, respectively.
(§2) The specificity and sensitivity of the resultant colonies to added drugs were followed by measuring the minimal inhibitory concentration (MIC) of trimethoprim, sulfamethozasone, phosphomycin and D-cycloserine at varying regulator levels. This was performed according to NCCLS (National Center for Clinical Laboratory Standards) recommendations(NCCLS, 1997, METHODS FOR DILUTION ANTIMICROBIAL SUSCEPTIBILITY TESTS FOR BACTERIA THAT GROW AEROBICALLY, 4th ed.; approved standard. NCCLS document M7-A4. NCCLS, Wayne, Pa.), in 100 μl volume in 96-well format, with serial two-fold dilutions of drug concentration.

[2] = system: cells in which murA is regulated by PBAD; assay: MIC by microbroth dilution in E. coli under-expressing murA; details: for MIC with decreasing regulator (L-arabinose) level: FIG. 4; for sensitivity on under-expression of murA: FIG. 6
Experimental: The wild-type gene murA, which encodes the enzyme UDP-N-acetylglucosamine enolpyruvate transferase, was knocked out in E. coli, and the gene was placed under ectopic expression in the yibD locus under regulation by PBAD with the regulator, L-arabinose.
as §1, §2

[3] = system: E. coli strain WO-153; assay: Genome-wide E. coli ORFmer overexpression rescue (OER) assay; details: for PCR verification of OER clones: expected target gene: liquid microtiter assay, expected targets folA, murA, fabI; for PCR verification of OER clones: expected clone: two plate assay format (disk diffusion, gradient plate)
Experimental: Over expression Rescue Assays. Over expression assays were conducted with the E. coli strain WO-153 described in Table 7. Construction of WO-0153. […] The asmB1 mutation is a G to A transition at position 628 in the 1pxC gene. […] The tolC gene encodes an outer membrane protein that acts as a channel for the acrAB efflux pumps (See for example, Fralick, J. 1996. J. Bacteriol. 178:5801-5805). […] WO-0153 was constructed as follows. The asmB1 mutation was introduced into a DNA fragment containing the 1pxC gene and 1 kb of the 5′ end of the secA gene by site directed mutagenesis of the 1pxC gene using standard methods. A kan^R resistance cassette flanked by FRT sites was introduced 60 bp downstream of the 1pxC gene. The linear DNA construct was introduced into electrocompetent and recombinogenic E. coli KM354 (pTP223) as described by Murphy (See for example, Murphy, 1998, J. Bacteriol. 180: 2063-71). Transformants were selected on LB agar containing kanamycin (35 mcg/ml) and screened for sensitivity to novobiocin (20 mcg/ml). The presence of the asmB1 mutation in clones with the expected phenotype was verified by DNA sequence analysis. The kanR gene flanked by FRT sites was then excised from the 1pxC-secA intergenic region using a previously described method (See for example, Cherepanove, P. P, and Wackernagel, W. 1995. Gene 158: 9-14.). […] 178:5138-5143; Fralick, J. (1996). J. Bacteriol. 178:5801-5805; Fralick, J. A., et al. (1994) J. Bacteriol. 176:6404-6406; and Cherepanove, P. P, et al., (1995) Gene 158:9-14. […] Plasmid library DNA was transformed into WO-153 by electroporation as described above. Cells were collected from transformation plates by scraping and were equalized to an optical density of 1.53 on a Beckman DU650 spectrophotometer([…]). Groups of five libraries were mixed and frozen in LB media plus 10% (vol/vol) glycerol by immersion in a dry-ice/ethanol bath for 5 minutes.
Over-expression assays were performed in liquid media in a microtiter format, in a gradient plate format, or in a disk-diffusion format. The protocol used for the microtiter format was similar to the protocol described above for the MIC assay. Aliquots of 5 library pools spanning the genome were thawed at room temperature and 200 ul of each was inoculated into its own 20 ml of Mueller Hinton media containing ampicillin at 200 ug/ml and anhydrous tetracycline inducer as appropriate. Typically, replicates were performed using a number of final inducer concentrations, ranging from 0 to 100 ng/ml. Following an adequate mixing, 50 ul of inoculated media was mixed with 50 ul of the test antibiotic in Nunc brand 96-well microtiterplates. Typically, each group of five libraries was mixed with a range of concentrations of antibiotic spanning the minimum inhibitory concentration (MIC) of the antibiotic. […] Columns may contain 10 different groups of libraries as well as null vector and no innoculum controls. After mixing inoculum plus media with antibiotic, well contents were mixed by pipetting and incubated at 37° C. for 16 to 20 hours. Optical density at 600 nm was measured using a Molecular Devices SpectraMAX 250 spectrophotometer. […] Contents of wells showing rescue were transferred to LB agar plates containing ampicillin at 100 ug/ml, and were spread to obtain single colonies. Alternately, it is possible to maintain selection for the antibiotic being assayed by including it in the agar plates at this point.
OER Assay using Disk diffusion and Gradient Plate Assay formats. In the Disk diffusion plate format, the 3 inocula (see below) were plated on MHB plates containing ampicillin (100 mcg/ml) and anhydrous tetracycline (a-tet, 100 ng/ml). Two paper disks (6 mm diameter) containing 10×and 20×MIC of the test antiobiotic were placed on the surface of the plate.

Compound	MIC with decreasing regulator level [1]	MIC with decreasing regulator (L-arabinose) level [2]	sensitivity on under-expression of murA [2]	PCR verification of OER clones: expected target gene [3]	PCR verification of OER clones: expected clone [3]	MIC with decreasing regulator (L-arabinose) level ([1]; FIG. 5)
C[C@@H]1O[C@@H]1P(=O)(O)O [phosphomycin]	relatively unchanged	decreases	hypersensitivity	expected target gene was identifed	expected clone was isolated	–
COc1cc(Cc2cnc(N)nc2N)cc(OC)c1OC [trimethoprim]	decreases	relatively unchanged	not sensitive	expected target gene was identifed	expected clone was isolated	decreases

Source: patent US20030108872A1, “Genomics-assisted rapid identification of targets” (priority 2000, published 2003)
